# In patent US20020142347A1, “Biosensor” (BIOSENSOR ApS, priority 2000, published 2002):
# Numbering of substitutions follows the chain as printed. Names may count otherwise. “And” between values parts separate entries of the source, which are not always exact repeats. Identical values can stand only once. Like-named read-outs stand apart in the source and are kept apart here.
# B1: FACI-53: badan derivative of A53C-bovine ACBP (Fluorescent Acyl-CoA Indicator 53) (conjugate, UniProt P07107 2-87, looked up, variant A53C)
# Acyl-CoA-binding protein: SQAEFDKAAEEVKHLKTKPADEEMLFIYSHYKQATVGDINTERPGMLDFKGKCKWDAWNELKGTSKEDAMKAYIDKVEELKKKYGI
# modifications: badan label
# B2: FACI-24: badan derivative of M24C-bovine ACBP (Fluorescent modified Acyl-CoA Indicator 24) (conjugate, UniProt P07107 2-87, looked up, variant M24C)
# Acyl-CoA-binding protein: B1 Acyl-CoA-binding protein with M24C, C53A
# modifications: badan label
# How the values were obtained:
# [1] = target: T1, FACI-24 (Bos taurus, UniProt P07107, M25C); experiment: Fluorescence titration equilibrium binding analysis of CoA and acyl-CoA esters to FACI-24; set-up: species or system bovine
# T1 construct: made in house; host or cells: E. coli BL21(DE3)pLysS, pET3a vector
# T1 sequence (P07107 2-87 M25C): B1 Acyl-CoA-binding protein with M24C, C53A
# Experimental: Development of a mathematical expression describing the relationship between acyl-CoA concentration and FACI-24 fluorescence was performed essentially as by Richieri et al 1992, J Biol Chem, 267:23495-23501. However, where ligand binding to ADIFAB induces both a fluorescence intensity increase around 505 nm and a fluorescence intensity decrease around 432 nm, ligand binding to FACI-24 only causes an increase in fluorescence around 460 nm.
# Derivatisation of an expression for the fluorescence value as a function of the acyl-coA concentration was done using the Scatchard equation as a starting point: [formula]
# which has been used to fit the titration data.
# The curves represent the best fit analysis from two independent experiment calculated and normalized as described above. The FACI-24 binding affinity increases dramatically when the acyl-chain length increases from C8 to C10 and C12, a smaller but significant drop in Kd is seen by increasing chain length from C12 to C14. C14 to C18 saturated acyl-CoA esters and C18:1-CoA binds with similar and very high affinities to FACI-24. In >0.1 M salt, FACI-24 binds acyl-CoAs with higher affinity and similar specificity as native unmodified bovine ACBP. The Kd for binding of C12-CoA and C16-CoA to native ACBP is 40 and 2.0 nM, respectively (Fulcery et al Biochemical, 1997, 325:423-428; Færgeman et al 1996, Biochemistry, 35:14118-14126). FACI-24 is highly specific for binding long-chain acyl-CoA esters.
# (§1) Titration of FACI with acyl-CoAs was done using a SPEX FLOUROLOG (Industries Inc, Edison N.J., USA) with excitation at 387 nm and emission at 460 nm, with both excitation and emission slits set to 4.5 nm. FACI (0.5-4.5 uM, as indicated) was dissolved in 1.5 ml binding buffer (10 mM HEPES 150 mM NaCl, 5 mM KCl, 1 mM Na2HPO4, pH 7.4) and titrated with a 10 μM acyl-CoA dissolved in binding buffer, with or without FACI added, as indicated. Fluorescence emission values (counts per second) measured without FACI added to the ligand stock solution were corrected for titrand dilution.
# Up to four parameters were fitted in this way, these were B, representing the point of saturation on the X axis, H, representing the maximum fluorescence, i.e. the fluorescence at saturating concentration of acyl-CoA, L, the minimum fluorescence value, i.e. the fluorescence of FACI-24 alone in buffer, and K, the Kd value lor the acyl-CoA in question. Initial estimates for the fittable parameters were typically: B=1, H=maximum fluorescence value measured, L=minimum fluorescence value measured (at acyl-CoA-concentration=0), and K as judged from the raw data, typically from 0.0001 uM to 0.1 uM for acyl-CoA longer than C10:0-CoA.
# For each acyl-CoA at least two titrations and fittings were performed. To consider two or more titrations of the same acyl-CoA together and obtain a Kd value using all these titrations, both axes of the raw data were standardised using the fitted values of B, H and L in this way:
# X axis standard=(raw X axis values)/Bfitted
# Y axis standard=[(raw Y axis values)−Lfitted]/[Hfitted−Lfitted]
# In this way all Y axis values should come to lie between 0 and 1 and the X axis value should be 1 at the point of saturation (FACI-24:acyl-CoA 1:1). Such adjusted data were pooled and fitted using DataFit. Typically, both H and B fitted to values close to 1 and L fitted to values close to 0. K was typically fitted to values somewhere between the two values obtained for the raw data.
# This could be overcome by removing B from the fittable parameters list and instead setting it to a constant value of 1 and fitting again. This was typically done for both the raw and the standardised data.
# [2] = target: T2, FACI53 (Bos taurus, UniProt P07107, A54C); experiment: Fluorescence emission change of FACI-53 on titration with CoA and acyl-CoA esters; type: binding, bovine; settings: for Fluorescence emission maximum of FACI-53 with ligand: 525 nm when no ligand present, excitation 400 nm; for Relative emission of FACI-53 at 495 nm, fold increase: emission at 495 nm
# T2 construct: badan (6-bromoacetyl-2-dimethylaminonaphthalene) fluorophore on the introduced Cys-53; made in house; host or cells: E. coli BL21(DE3)pLysS, pET3a vector
# T2 sequence (P07107 2-87 A54C): B1 Acyl-CoA-binding protein
# Experimental: (§2) Quantitative determination of binding affinities (KD) were performed by isothermal titration micro calorimetry as previously described (Faergeman et. al., 1996; Biochemistry 35, 14118-14126). Qualitative evaluation of relative binding affinities were determined by isoelectrical focusing using the Pharmacia Fast Gel system according to the prescriptions given by the manufacture. Fluorescence emission changes induced by acyl-CoA binding to badan modified protein were determined as follows: 5 μl portions of acyl-CoAs were added from stock solutions disolved in binding buffer, (10 mM Hepes, 150 mM NaCL, 1 mM NaHPO4, pH 7.4) containing 3.4 μM Badan derivatized protein to a 1 ml 3.4 μM solution of the Badan derivatized ACBP in the same buffer. The fluorescence emission was measured on a SPEX FLOUROLOG (Industries Inc, Edison N.J., USA) with excitation at 400 nm and emission scan from 400 nm to 550 nm. The concentration of acyl-CoA in the aqueous phase was determined from the fluorescence emission sensitivities at 495 and 470 nm repectively essentially by the method described by (Grynkiewickz et. al.,1985, J. Biol. Chem. 260, 3440-3450) according to which:
# (§3) Fluorescence titration emission spectra from 415 nm to 550 nm (excitation at 400 nm) were performed for CoA, C4:0-, C8:0-, C12:0-, C16:0-, and C20:0-CoA with all four mutated and badan modified proteins.
# Titration of FACI-53 dissolved in binding buffer with the above mentioned acyl-CoA esters produced a smooth downward shift in fluorescence emission maximum from 525 nm when no ligand was present to 508, 503, 490, 492, 496 and 514 with increasing concentrations of CoA, C4:0-, C8:0-, C12:0-, C16:0- and C20:0-CoA respectively.
# [3] = target: T1, FACI-24; experiment: Fluorescence emission change of FACI-24 on titration with CoA and acyl-CoA esters; type: binding, bovine; settings: for Downshift in emission maximum of FACI-24: emission maximum without ligand 510 nm, excitation 400 nm
# Experimental: as §2, §3
# The emission maximum of FACI-24 without ligand added was 510 nm and titration with CoA, C4:0-, C8:0-, C12:0-, […], C16:0- and C20:0-CoA caused 0, 16, 34, 42, 46 and 46 nm downshift in emission maximum, respectively (results not shown). C16:0-CoA induced a 5,5 fold increase in emission at 464 nm (FIG. 10).
# as §1
# [4] = target: T3, native bovine ACBP (Bos taurus, UniProt P07107); settings: literature, read-out: KD for binding to native bovine ACBP, cited from earlier work
# T3 sequence (P07107 1-87): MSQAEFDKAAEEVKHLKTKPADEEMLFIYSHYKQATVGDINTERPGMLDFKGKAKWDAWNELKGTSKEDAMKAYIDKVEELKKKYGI
# [5] = FACI-24 (1.5 μM) titrated with increasing CoA and acyl-CoA concentration, fitted binding curves, emission 460 nm, read-out: Kd (nM) ± S.E.
Molecule,"Kd [1, 5] [nM]","Magnitude of emission of FACI-53, fold increase [2] [fold]",Fluorescence emission maximum of FACI-53 with ligand [2] [nm],"Relative emission of FACI-53 at 495 nm, fold increase [2] [fold]",Downshift in emission maximum of FACI-24 [3] [nm],also measured
CCCCCCCCCCCCCCCCCC(=O)SCCNC(=O)CCNC(=O)[C@H](O)C(C)(C)COP(=O)(O)OP(=O)(O)OC[C@H]1O[C@@H](n2cnc3c(N)ncnc32)[C@H](O)[C@@H]1OP(=O)(O)O [C18:0-CoA],1.65 ± 0.83,–,–,–,–,–
CCCCCCCC(=O)SCCNC(=O)CCNC(=O)[C@H](O)C(C)(C)COP(=O)(O)OP(=O)(O)OC[C@H]1O[C@@H](n2cnc3c(N)ncnc32)[C@H](O)[C@@H]1OP(=O)(O)O [C8:0-CoA],342 ± 31.9,2.9,490,4.8,34,–
"CC(C)(COP(=O)(O)OP(=O)(O)OC[C@H]1O[C@@H](n2cnc3c(N)ncnc32)[C@H](O)[C@@H]1OP(=O)(O)O)[C@@H](O)C(=O)NCCC(=O)NCCS [CoASH, Coenzyme A]",2450 ± 249,1.1,508,1.5,0,Fluorescence response of FACI-53 ([2]; listed as CoA): hardly responded; Fluorescence response of FACI-53 ([2]; listed as free CoA): Neither FACI24 or FACI53 respond significantly; Kd [4]: 2000 nM; Kd ([1]; read-out: Kd for binding to FACI-24): 2500 nM and 2000 nM; Fluorescence response of FACI-24 [3]: Neither FACI24 or FACI53 respond significantly; Fold increase in FACI-24 fluorescence emission at 460 nm ([3]; emission at 460 nm): 3 fold
CCCCCCCCCC(=O)SCCNC(=O)CCNC(=O)[C@H](O)C(C)(C)COP(=O)(O)OP(=O)(O)OC[C@H]1O[C@@H](n2cnc3c(N)ncnc32)[C@H](O)[C@@H]1OP(=O)(O)O [C10:0-CoA],61.8 ± 2.49,–,–,–,–,–
C18:1-CoA,0.59 ± 0.19,–,–,–,–,–
CCCC(=O)SCCNC(=O)CCNC(=O)[C@H](O)C(C)(C)COP(=O)(O)OP(=O)(O)OC[C@H]1O[C@@H](n2cnc3c(N)ncnc32)[C@H](O)[C@@H]1OP(=O)(O)O [C4:0-CoA],1500 ± 223,1.8,503,2.8,16,–
CCCCCCCCCCCCCC(=O)SCCNC(=O)CCNC(=O)[C@H](O)C(C)(C)COP(=O)(O)OP(=O)(O)OC[C@H]1O[C@@H](n2cnc3c(N)ncnc32)[C@H](O)[C@@H]1OP(=O)(O)O [C14:0-CoA],1.66 ± 0.26,–,–,–,–,"Kd ([4]; isothermal titration microcalorimetry, >0.1 M salt): 16 nM; Kd ([1]; titration equilibrium analysis, >0.1 M salt, read-out: KD for binding to FACI24): 1.7 nM"
B1,–,–,–,–,–,"Emission maximum of FACI53 on titration with ligand ([2]; FIG. 3): 487 nm; Fluorescence emission maximum of FACI-53, no ligand present ([2]; no ligand): 525 nm"
B2,–,–,–,–,–,Emission maximum of FACI24 on titration with ligand ([3]; FIG. 2): 465 nm; Emission maximum of FACI-24 without ligand added ([3]; no ligand): 510 nm
